Earlier results in PMC5857253 (Bioorganic chemistry, 2018).

Target: β-galactosidase (A. oryzae) (Aspergillus oryzae, UniProt Q2UCU3)
Conditions: methods described by Bartlett et al.

β-galactosidase (A. oryzae), sequence (Q2UCU3 19-1005): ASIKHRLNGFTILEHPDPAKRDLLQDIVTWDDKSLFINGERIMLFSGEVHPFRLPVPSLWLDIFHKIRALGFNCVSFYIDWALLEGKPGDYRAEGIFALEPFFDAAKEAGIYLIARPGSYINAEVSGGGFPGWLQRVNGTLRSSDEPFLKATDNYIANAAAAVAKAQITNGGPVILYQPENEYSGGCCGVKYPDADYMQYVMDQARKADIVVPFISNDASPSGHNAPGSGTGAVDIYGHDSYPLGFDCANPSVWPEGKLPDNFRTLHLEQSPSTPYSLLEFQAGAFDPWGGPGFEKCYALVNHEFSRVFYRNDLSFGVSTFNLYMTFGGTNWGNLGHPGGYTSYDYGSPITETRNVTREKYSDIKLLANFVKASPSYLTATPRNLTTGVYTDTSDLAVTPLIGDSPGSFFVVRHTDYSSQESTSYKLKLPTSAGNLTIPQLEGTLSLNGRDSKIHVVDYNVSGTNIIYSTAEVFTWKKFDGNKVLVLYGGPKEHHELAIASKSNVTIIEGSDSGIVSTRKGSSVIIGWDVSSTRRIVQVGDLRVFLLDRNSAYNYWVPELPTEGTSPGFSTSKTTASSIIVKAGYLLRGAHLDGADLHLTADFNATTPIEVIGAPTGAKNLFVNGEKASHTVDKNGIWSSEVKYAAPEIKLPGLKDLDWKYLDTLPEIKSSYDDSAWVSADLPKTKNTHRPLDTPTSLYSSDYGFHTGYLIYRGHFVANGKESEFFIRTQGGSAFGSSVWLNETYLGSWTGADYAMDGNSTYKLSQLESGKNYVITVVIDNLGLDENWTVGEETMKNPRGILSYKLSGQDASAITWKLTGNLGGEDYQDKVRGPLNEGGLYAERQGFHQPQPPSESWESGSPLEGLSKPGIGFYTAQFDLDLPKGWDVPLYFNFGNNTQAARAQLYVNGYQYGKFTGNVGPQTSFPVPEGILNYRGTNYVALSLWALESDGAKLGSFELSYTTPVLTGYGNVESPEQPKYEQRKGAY

SMILES: Cc1ccc(C/N=C2\N[C@H](CO)[C@H](O)[C@H](O)[C@H]2O)cc1 [1a, p-methylbenzyl galactonoamidine]
- classification as putative transition state analog (TSA): characterized as a putative transition state analog
